This note sets out measurements from US20070128217A1 (priority 2003, published 2007).

The test system of test [1] is antibodies in sera from SARS patients (sera 1a, 1b, 2, 6, 37, 62, London, SARS-yellow, SARS-green). The format is binding, human. Details: Binding of serum 6 to linear peptides of protein X1 of SARS-CoV Urbani / Binding of serum 37 to linear peptides of protein X1 of SARS-CoV Urbani / Binding of serum 6 to looped/cyclic peptide (PEPSCAN-ELISA) / Binding of serum 37 to looped/cyclic peptide (PEPSCAN-ELISA) / Binding of serum 37 to looped/cyclic peptides of protein X1 of SARS-CoV Urbani / Binding of serum 6 to linear peptides of protein X2 / Binding of serum 37 to linear peptides of protein X2 / Binding of serum 37 to looped/cyclic peptides of protein X2 of SARS-CoV Urbani / Binding of serum 6 to linear peptides of protein M of SARS-CoV Urbani / Binding of serum 37 to linear peptides of protein M of SARS-CoV Urbani / Binding of serum 6 to looped/cyclic peptides of protein M of SARS-CoV Urbani / Binding of serum 37 to looped/cyclic peptides of protein M of SARS-CoV Urbani / Binding of serum 6 to linear peptides of protein X3 of SARS-CoV Urbani / Binding of serum 37 to linear peptides of protein X3 of SARS-CoV Urbani / Binding of serum 37 to looped/cyclic peptides of protein X3 of SARS-CoV Urbani / Binding of serum 6 to linear peptides of protein X4 of SARS-CoV Urbani / Binding of serum 37 to linear peptides of protein X4 of SARS-CoV Urbani / Binding of serum 37 to looped/cyclic peptides of protein X4 of SARS-CoV Urbani / Binding of serum 6 to linear peptides of protein X5 of SARS-CoV Urbani / Binding of serum 37 to linear peptides of protein X5 of SARS-CoV Urbani / Binding of serum 37 to looped/cyclic peptides of protein X5 of SARS-CoV Urbani / Binding of serum 6 to linear peptides of protein N of SARS-CoV Urbani / Binding of serum 37 to linear peptides of protein N of SARS-CoV Urbani / Binding of serum 6 to linear peptide (PEPSCAN-ELISA) / Binding of serum 1a to looped/cyclic peptides of protein N of SARS-CoV Urbani / Binding of serum 1b to looped/cyclic peptides of protein N of SARS-CoV Urbani / Binding of serum 2 to looped/cyclic peptides of protein N of SARS-CoV Urbani / Binding of serum 6 to looped/cyclic peptides of protein N of SARS-CoV Urbani / Binding of serum 37 to looped/cyclic peptides of protein N of SARS-CoV Urbani / Binding of serum 62 to looped/cyclic peptides of protein N of SARS-CoV Urbani / Binding of serum London to looped/cyclic peptides of protein N of SARS-CoV Urbani / Binding of serum SARS-green to looped/cyclic peptides of protein N of SARS-CoV Urbani: unit not given here.

Test [2] deals with rabbit serum obtained by immunizing a rabbit with the SARS-CoV strain Frankfurt 1. Type of test: binding. More on the design: Binding of a rabbit serum to linear peptides / Binding of a rabbit serum to looped peptides / Rabbit serum linear peptides / Rabbit serum looped peptides / Binding of a rabbit serum to linear peptides of protein N of SARS-CoV Urbani (Rabbit serum linear peptides) / Binding of a rabbit serum to looped/cyclic peptides of protein N of SARS-CoV Urbani (Rabbit serum looped peptides): unit not given here.

The test system of test [3] is control sera (pooled serum of ten healthy LUMC hospital workers; commercial negative donor pooled serum from the Dutch bloodbank). The format is binding, human. Details: Binding of Control serum LUMC to linear peptides / Binding of Control serum Blood-bank to linear peptides / Binding of Control serum LUMC to looped peptides / Binding of Control Serum Blood-Bank to Looped peptides / Binding of Control serum LUMC to linear peptides of the protein M of SARS-CoV Urbani / Binding of Control serum Blood-bank to linear peptides of the protein M of SARS-CoV Urbani / Binding of Control serum LUMC to looped peptides of the protein M of SARS-CoV Urbani / Binding of Control Serum Blood-Bank to Looped peptides of the protein M of SARS-CoV Urbani: unit not given here.

As for LLLVAAGMEAQFLYL, in test [1], the “Binding of serum 1a to linear peptides of protein X1 of SARS-CoV Urbani” value worked out at 0.9, the “Binding of serum 1a to looped/cyclic peptide (PEPSCAN-ELISA)” value is 0.6, the “Binding of serum 1b to linear peptides of protein X1 of SARS-CoV Urbani” value was 0.8 and the “Binding of serum 1b to looped/cyclic peptide (PEPSCAN-ELISA)” value amounted to 0.5. Further, in test [1], the “Binding of serum 2 to linear peptides of protein X1 of SARS-CoV Urbani” value is 0.6, the “Binding of serum 2 to looped/cyclic peptide (PEPSCAN-ELISA)” value is on record as 0.6, the “Binding of serum 6 to linear peptides of protein X1 of SARS-CoV Urbani” value worked out at 0.5 and the “Binding of serum 6 to looped/cyclic peptide (PEPSCAN-ELISA)” value was 0.3. Also, in test [1], the “Binding of serum 37 to linear peptides of protein X1 of SARS-CoV Urbani” value was 0.6, the “Binding of serum 37 to looped/cyclic peptide (PEPSCAN-ELISA)” value is on record as 0.7, the “Binding of serum 62 to linear peptides of protein X1 of SARS-CoV Urbani” value is on record as 0.6 and the “Binding of serum 62 to looped/cyclic peptide (PEPSCAN-ELISA)” value came to 0.7. Further, in test [1], the “Binding of serum London to linear peptides of protein X1 of SARS-CoV Urbani” value stood at 0.2, the “Binding of serum London to looped/cyclic peptide (PEPSCAN-ELISA)” value stood at 0.2, the “Binding of serum SARS-green to linear peptides of protein X1 of SARS-CoV Urbani” value is 0.1 and the “Binding of serum SARS-green to looped/cyclic peptide (PEPSCAN-ELISA)” value was 0.5. In test [1], the “Binding of serum SARS-yellow to linear peptides of protein X1 of SARS-CoV Urbani” value was found to be 0.6 and the “Binding of serum SARS-yellow to looped/cyclic peptide (PEPSCAN-ELISA)” value turned out to be 0.6. Moreover, in test [2], the “Binding of a rabbit serum to linear peptides” value was determined as 0.2 and the “Binding of a rabbit serum to looped peptides” value stood at 0.5. Besides, in test [3], the “Binding of Control Serum Blood-Bank to Looped peptides” value turned out to be 0.5, the “Binding of Control serum Blood-bank to linear peptides” value was determined as 0.6, the “Binding of Control serum LUMC to linear peptides” value is 1.0 and the “Binding of Control serum LUMC to looped peptides” value came to 0.7.
As to LLQTLVLKMLHSSSL, in test [1], the “Binding of serum 1a to linear peptides of protein X2” value is listed as 0.6, the “Binding of serum 1a to looped/cyclic peptides of protein X2 of SARS-CoV Urbani” value was determined as 0.5, the “Binding of serum 1b to linear peptides of protein X2” value is reported as 0.5 and the “Binding of serum 1b to looped/cyclic peptides of protein X2 of SARS-CoV Urbani” value came out at 0.5. In test [1], the “Binding of serum 2 to linear peptides of protein X2” value turned out to be 0.3, the “Binding of serum 2 to looped/cyclic peptides of protein X2 of SARS-CoV Urbani” value came to 0.3, the “Binding of serum 6 to linear peptides of protein X2” value turned out to be 0.3 and the “Binding of serum 6 to looped/cyclic peptides of protein X2 of SARS-CoV Urbani” value is on record as 0.7. Further, in test [1], the “Binding of serum 37 to linear peptides of protein X2” value is on record as 0.5, the “Binding of serum 37 to looped/cyclic peptides of protein X2 of SARS-CoV Urbani” value came out at 0.4, the “Binding of serum 62 to linear peptides of protein X2” value stood at 0.5 and the “Binding of serum 62 to looped/cyclic peptides of protein X2 of SARS-CoV Urbani” value turned out to be 0.6. Also, in test [1], the “Binding of serum London to linear peptides of protein X2” value is 0.4, the “Binding of serum London to looped/cyclic peptides of protein X2 of SARS-CoV Urbani” value was 1.1, the “Binding of serum SARS-green to linear peptides of protein X2” value amounted to 0.5 and the “Binding of serum SARS-green to looped/cyclic peptides of protein X2 of SARS-CoV Urbani” value was 0.3. In addition, in test [1], the “Binding of serum SARS-yellow to linear peptides of protein X2” value was found to be 0.5 and the “Binding of serum SARS-yellow to looped/cyclic peptides of protein X2 of SARS-CoV Urbani” value was determined as 0.5. In test [2], the “Binding of a rabbit serum to linear peptides” value was determined as 0.2 and the “Binding of a rabbit serum to looped peptides” value was determined as 0.4. Moreover, in test [3], the “Binding of Control Serum Blood-Bank to Looped peptides” value was 0.6, the “Binding of Control serum Blood-bank to linear peptides” value came to 0.5, the “Binding of Control serum LUMC to linear peptides” value was determined as 0.3 and the “Binding of Control serum LUMC to looped peptides” value worked out at 0.6.
